We go through 16 compounds from patent US20260241012A1, “1,8-NAPHTHYRIDIN-2-ONE HETEROBIFUNCTIONAL BCL6 DEGRADERS” (Treeline Biosciences, Inc., priority 2022, published 2026).

The assay concerns the target T1, N-terminal HiBiT tagged BCL6 (Homo sapiens, UniProt P41182).
T1 construct: expressed in transfected cells; host or cells: HT1080 (ATCC CCL-121), stably transduced with lentivirus pLV-UBC-N-HiBiT-BCL6-PGK-puro
Description: HiBiT based degradation assay. Format: cell-based. The note with it: HT1080 cells expressing N-terminal HiBiT tagged BCL6, 5 hours of incubation; for Ymin (5 hr): BCL6 degradation normalized with DMSO control; for DC50: four-parameter logistic model, read-out: EC50 (5 hr). In outline:
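Degradation measured by luminescence from the Nano-Glo HiBiT lytic reagent (15 min, room temperature), normalized to DMSO controls and fitted to a four-parameter curve.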

In the case of `CNC(=O)COc1cc2cc(Nc3nc(N4CCN(CC5CCN(c6ccc7c(C8CCC(=O)NC8=O)nn(C)c7c6)CC5)C[C@@H]4CO)ncc3Cl)cnc2n(C(C)C)c1=O` (stereo partly drawn) [Compound 151a, 2-((6-((5-chloro-2-((2R)-4-((1-(3-(2,6-dioxopiperidin-3-yl)-1-methyl-1H-indazol-6-yl)piperidin-4-yl)methyl)-2-(hydroxymethyl)piperazin-1-yl)pyrimidin-4-yl)amino)-1-isopropyl-2-oxo-1,2-dihydro-1,8-naphthyridin-3-yl)oxy)-N-methylacetamide], the “Ymin (5 hr)” value is “+++ (30% ≤ Ymin < 50%)” and the DC50 was under 10 nM.
Turning to `CNC(=O)COc1cc2cc(Nc3nc(N4CCN(CC5CCN(c6ccc7c(C8CCC(=O)NC8=O)nn(C)c7c6)CC5)C[C@H]4CO)ncc3Cl)cnc2n(C(C)C)c1=O` (stereo partly drawn) [Compound 151b, 2-((6-((5-chloro-2-((2S)-4-((1-(3-(2,6-dioxopiperidin-3-yl)-1-methyl-1H-indazol-6-yl)piperidin-4-yl)methyl)-2-(hydroxymethyl)piperazin-1-yl)pyrimidin-4-yl)amino)-1-isopropyl-2-oxo-1,2-dihydro-1,8-naphthyridin-3-yl)oxy)-N-methylacetamide], the “Ymin (5 hr)” value is on record as “++ (50% ≤ Ymin < 70%)” and the DC50 was under 10 nM.
`CNC(=O)COc1cc2cc(Nc3cc(N4CCC(CN5CCN(c6cccc7c(C8CCC(=O)NC8=O)nn(C)c67)CC5)CC4)ncc3Cl)cnc2n(C(C)C)c1=O` (centres unmarked) [Compound 152, 2-((6-((5-chloro-2-(4-((4-(3-(2,6-dioxopiperidin-3-yl)-1-methyl-1H-indazol-7-yl)piperazin-1-yl)methyl)piperidin-1-yl)pyridin-4-yl)amino)-1-isopropyl-2-oxo-1,2-dihydro-1,8-naphthyridin-3-yl)oxy)-N-methylacetamide]: the “Ymin (5 hr)” value is “+++ (30% ≤ Ymin < 50%)” and the DC50 lay in the range of 10 to 100 nM.
In the case of `CNC(=O)COc1cc2cc(Nc3nc(N4CCN(CC5CCN(c6ccc7c(C8CCC(=O)NC8=O)nn(C)c7c6)CC5)[C@@H](CO)C4)ncc3Cl)cnc2n(C(C)C)c1=O` (stereo partly drawn) [Compound 153a, 2-((6-((5-chloro-2-((3R)-4-((1-(3-(2,6-dioxopiperidin-3-yl)-1-methyl-1H-indazol-6-yl)piperidin-4-yl)methyl)-3-(hydroxymethyl)piperazin-1-yl)pyrimidin-4-yl)amino)-1-isopropyl-2-oxo-1,2-dihydro-1,8-naphthyridin-3-yl)oxy)-N-methylacetamide], the “Ymin (5 hr)” value is “+++ (30% ≤ Ymin < 50%)” and the DC50 was under 10 nM.
For the compound `CNC(=O)COc1cc2cc(Nc3nc(N4CCN(CC5CCN(c6ccc7c(C8CCC(=O)NC8=O)nn(C)c7c6)CC5)[C@H](CO)C4)ncc3Cl)cnc2n(C(C)C)c1=O` (stereo partly drawn) [Compound 153b, 2-((6-((5-chloro-2-((3S)-4-((1-(3-(2,6-dioxopiperidin-3-yl)-1-methyl-1H-indazol-6-yl)piperidin-4-yl)methyl)-3-(hydroxymethyl)piperazin-1-yl)pyrimidin-4-yl)amino)-1-isopropyl-2-oxo-1,2-dihydro-1,8-naphthyridin-3-yl)oxy)-N-methylacetamide], the “Ymin (5 hr)” value is on record as “+++ (30% ≤ Ymin < 50%)” and the DC50 was under 10 nM.
`CNC(=O)COc1cc2cc(Nc3nc(N4CCN(CC5CCN(c6cccc7c(C8CCC(=O)NC8=O)nn(C)c67)CC5)CC4)ncc3Cl)cnc2n(CCOC)c1=O` (centres unmarked) [Compound 154, 2-((6-((5-chloro-2-(4-((1-(3-(2,6-dioxopiperidin-3-yl)-1-methyl-1H-indazol-7-yl)piperidin-4-yl)methyl)piperazin-1-yl)pyrimidin-4-yl)amino)-1-(2-methoxyethyl)-2-oxo-1,2-dihydro-1,8-naphthyridin-3-yl)oxy)-N-methylacetamide]: the “Ymin (5 hr)” value was “++++ (Ymin < 30%)” and the DC50 is under 10 nM.
For `CNC(=O)COc1cc2cc(Nc3nc(N4CCN(CC5CCN(c6cccc7c(C8CCC(=O)NC8=O)nn(C)c67)CC5)C[C@H]4CO)ncc3Cl)cnc2n(C(C)C)c1=O` (stereo partly drawn) [Compound 155a, 2-((6-((5-chloro-2-((2S)-4-((1-(3-(2,6-dioxopiperidin-3-yl)-1-methyl-1H-indazol-7-yl)piperidin-4-yl)methyl)-2-(hydroxymethyl)piperazin-1-yl)pyrimidin-4-yl)amino)-1-isopropyl-2-oxo-1,2-dihydro-1,8-naphthyridin-3-yl)oxy)-N-methylacetamide], the “Ymin (5 hr)” value was “+++ (30% ≤ Ymin < 50%)” and the DC50 was in the range of 10 to 100 nM.
`CNC(=O)COc1cc2cc(Nc3nc(N4CCN(CC5CCN(c6cccc7c(C8CCC(=O)NC8=O)nn(C)c67)CC5)C[C@@H]4CO)ncc3Cl)cnc2n(C(C)C)c1=O` (stereo partly drawn) [Compound 155b, 2-((6-((5-chloro-2-((2R)-4-((1-(3-(2,6-dioxopiperidin-3-yl)-1-methyl-1H-indazol-7-yl)piperidin-4-yl)methyl)-2-(hydroxymethyl)piperazin-1-yl)pyrimidin-4-yl)amino)-1-isopropyl-2-oxo-1,2-dihydro-1,8-naphthyridin-3-yl)oxy)-N-methylacetamide]: the “Ymin (5 hr)” value is given as “++++ (Ymin < 30%)” and the DC50 was under 10 nM.
Consider `CNC(=O)COc1cc2cc(Nc3nc(N4CCN(CC5CCN(c6cccc7c(C8CCC(=O)NC8=O)nn(C)c67)CC5)CC4)ncc3Cl)cnc2n(CC2CC2)c1=O` (centres unmarked) [Compound 157, 2-((6-((5-chloro-2-(4-((1-(3-(2,6-dioxopiperidin-3-yl)-1-methyl-1H-indazol-7-yl)piperidin-4-yl)methyl)piperazin-1-yl)pyrimidin-4-yl)amino)-1-(cyclopropylmethyl)-2-oxo-1,2-dihydro-1,8-naphthyridin-3-yl)oxy)-N-methylacetamide], for which the “Ymin (5 hr)” value was “++++ (Ymin < 30%)” and the DC50 lay within 10 to 100 nM.
As for `CNC(=O)COc1cc2cc(Nc3nc(N4CCN(C(C)(C)C5CCN(c6ccc7c(C8CCC(=O)NC8=O)nn(C)c7c6)CC5)CC4)ncc3Cl)cnc2n(C(C)C)c1=O` (centres unmarked) [Compound 158, 2-((6-((5-chloro-2-(4-(2-(1-(3-(2,6-dioxopiperidin-3-yl)-1-methyl-1H-indazol-6-yl)piperidin-4-yl)propan-2-yl)piperazin-1-yl)pyrimidin-4-yl)amino)-1-isopropyl-2-oxo-1,2-dihydro-1,8-naphthyridin-3-yl)oxy)-N-methylacetamide], the “Ymin (5 hr)” value is listed as “++ (50% ≤ Ymin < 70%)” and the DC50 was under 10 nM.
Take `CNC(=O)COc1cc2cc(Nc3cc(N4CCN(CC5CCN(c6cccc7c(C8CCC(=O)NC8=O)nn(C)c67)CC5)CC4)ncc3Cl)cnc2n(C)c1=O` (centres unmarked) [Compound 160, 2-((6-((5-chloro-2-(4-((1-(3-(2,6-dioxopiperidin-3-yl)-1-methyl-1H-indazol-7-yl)piperidin-4-yl)methyl)piperazin-1-yl)pyridin-4-yl)amino)-1-methyl-2-oxo-1,2-dihydro-1,8-naphthyridin-3-yl)oxy)-N-methylacetamide]: the “Ymin (5 hr)” value was “++++ (Ymin < 30%)” and the DC50 was under 10 nM.
Regarding `CNC(=O)COc1cc2cc(Nc3nc(N4CCC(F)(CN5CCC(c6cccc7c(C8CCC(=O)NC8=O)nn(C)c67)CC5)CC4)ncc3Cl)cnc2n(C(C)C)c1=O` (centres unmarked) [Compound 161, 2-((6-((5-chloro-2-(4-((4-(3-(2,6-dioxopiperidin-3-yl)-1-methyl-1H-indazol-7-yl)piperidin-1-yl)methyl)-4-fluoropiperidin-1-yl)pyrimidin-4-yl)amino)-1-isopropyl-2-oxo-1,2-dihydro-1,8-naphthyridin-3-yl)oxy)-N-methylacetamide], the “Ymin (5 hr)” value is recorded as “++++ (Ymin < 30%)” and the DC50 is 10 to 100 nM.
As to `CNC(=O)COc1cc2cc(Nc3nc(N4C5COCC4CN(CC4CCN(c6cccc7c(C8CCC(=O)NC8=O)nn(C)c67)CC4)C5)ncc3Cl)cnc2n(C(C)C)c1=O` (centres unmarked) [Compound 162, 2-((6-((5-chloro-2-(7-((1-(3-(2,6-dioxopiperidin-3-yl)-1-methyl-1H-indazol-7-yl)piperidin-4-yl)methyl)-3-oxa-7,9-diazabicyclo[3.3.1]nonan-9-yl)pyrimidin-4-yl)amino)-1-isopropyl-2-oxo-1,2-dihydro-1,8-naphthyridin-3-yl)oxy)-N-methylacetamide], the “Ymin (5 hr)” value was “++++ (Ymin < 30%)” and the DC50 was under 10 nM.
Consider `CNC(=O)COc1cc2cc(Nc3nc(N4CCN(CC5CCN(c6cccc7c(C8CCC(=O)NC8=O)nn(C)c67)CC5)[C@@H](C(F)(F)F)C4)ncc3Cl)cnc2n(C(C)C)c1=O` (stereo partly drawn) [Compound 163a, 2-[[6-[[5-chloro-2-[(3R)-4-[[1-[3-(2,6-dioxo-3-piperidyl)-1-methyl-indazol-7-yl]-4-piperidyl]methyl]-3-(trifluoromethyl)piperazin-1-yl]pyrimidin-4-yl]amino]-1-isopropyl-2-oxo-1,8-naphthyridin-3-yl]oxy]-N-methyl-acetamide], for which the “Ymin (5 hr)” value is recorded as “+++ (30% ≤ Ymin < 50%)” and the DC50 was 100 to 1000 nM.
With `CNC(=O)COc1cc2cc(Nc3nc(N4CCC(Oc5ccc6c(C7CCC(=O)NC7=O)nn(C)c6c5)CC4)ncc3Cl)cnc2n(C(C)C)c1=O` (centres unmarked) [Compound 164, 2-[[6-[[5-chloro-2-[4-[3-(2,6-dioxo-3-piperidyl)-1-methyl-indazol-6-yl]oxy-1-piperidyl]pyrimidin-4-yl]amino]-1-isopropyl-2-oxo-1,8-naphthyridin-3-yl]oxy]-N-methyl-acetamide], the “Ymin (5 hr)” value was “+++ (30% ≤ Ymin < 50%)” and the DC50 was under 10 nM.
For `CNC(=O)COc1cc2cc(Nc3nc(N4CCN(c5ccc6c(C7CCC(=O)NC7=O)nn(C)c6c5)CC4)ncc3Cl)cnc2n(C(C)C)c1=O` (centres unmarked) [Compound 165, 2-[[6-[[5-chloro-2-[4-[3-(2,6-dioxo-3-piperidyl)-1-methyl-indazol-6-yl]piperazin-1-yl]pyrimidin-4-yl]amino]-1-isopropyl-2-oxo-1,8-naphthyridin-3-yl]oxy]-N-methyl-acetamide], the “Ymin (5 hr)” value was “++ (50% ≤ Ymin < 70%)” and the DC50 was under 10 nM.
